Test results as given in patent publication US12590091B2, “1H-pyrrolo[3,2-C]pyridine and 1H-pyrrolo[2,3-C]pyridine derivatives as TLR9 inhibitors for the treatment of fibrosis” (BRISTOL-MYERS SQUIBB COMPANY, priority 2020, dated 2026).

These molecules were tested against T1, human TLR7 (Homo sapiens, UniProt Q9NYK1) (assay: TLR7 inhibition reporter assay (HEK-Blue cells, SEAP reporter)). Conditions: HEK-Blue cells overexpressing human TLR7, stimulated with gardiquimod 7.5 μM, 22 hour incubation.
T1 construct: host or cells: HEK-Blue cells
T1 sequence (Q9NYK1 27-1049): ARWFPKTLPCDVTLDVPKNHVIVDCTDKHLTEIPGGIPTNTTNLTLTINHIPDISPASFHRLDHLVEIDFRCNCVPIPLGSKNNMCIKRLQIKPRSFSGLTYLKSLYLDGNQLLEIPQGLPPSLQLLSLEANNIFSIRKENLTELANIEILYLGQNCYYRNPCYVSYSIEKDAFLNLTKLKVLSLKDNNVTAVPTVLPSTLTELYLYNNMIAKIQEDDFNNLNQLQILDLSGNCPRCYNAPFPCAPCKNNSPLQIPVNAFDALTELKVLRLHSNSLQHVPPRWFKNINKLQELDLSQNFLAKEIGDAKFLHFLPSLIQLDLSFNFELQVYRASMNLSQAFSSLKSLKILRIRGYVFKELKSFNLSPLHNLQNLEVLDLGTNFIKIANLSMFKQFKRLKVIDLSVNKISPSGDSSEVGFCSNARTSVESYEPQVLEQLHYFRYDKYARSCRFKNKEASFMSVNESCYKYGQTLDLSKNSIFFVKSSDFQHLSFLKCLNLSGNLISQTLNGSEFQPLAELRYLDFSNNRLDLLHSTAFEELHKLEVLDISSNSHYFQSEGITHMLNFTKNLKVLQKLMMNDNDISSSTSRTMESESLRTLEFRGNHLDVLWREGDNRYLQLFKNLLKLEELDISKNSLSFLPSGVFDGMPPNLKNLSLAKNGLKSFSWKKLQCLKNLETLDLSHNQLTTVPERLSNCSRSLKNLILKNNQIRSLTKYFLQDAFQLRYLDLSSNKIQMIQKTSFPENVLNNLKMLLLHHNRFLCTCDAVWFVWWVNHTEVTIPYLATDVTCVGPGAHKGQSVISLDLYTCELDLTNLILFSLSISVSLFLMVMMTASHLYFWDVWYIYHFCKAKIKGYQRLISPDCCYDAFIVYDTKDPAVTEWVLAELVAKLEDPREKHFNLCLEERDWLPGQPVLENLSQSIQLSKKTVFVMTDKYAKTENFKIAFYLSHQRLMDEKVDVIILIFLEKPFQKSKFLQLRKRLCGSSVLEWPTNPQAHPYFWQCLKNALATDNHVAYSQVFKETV
Assay type: cell-based
Method: TLR7/8/9 Inhibition Reporter Assays
HEK-Blue™-cells (Invivogen) overexpressing human TLR7, TLR8 or TLR9 receptors were used for screening inhibitors of these receptors using an inducible SEAP (secreted embryonic alkaline phosphatase) reporter gene under the control of the IFN-β minimal promoter fused to five NF-κB and AP-1-binding sites. Briefly, cells are seeded into Greiner 384 well plates (15000 cells per well for TLR7, 20,000 for TLR8 and 25,000 for TLR9) and then treated with test compounds in DMSO to yield a final dose response concentration range of 0.05 nM-50 μM. After a 30 minute compound pre-treatment at room temperature, the cells are then stimulated with a TLR7 ligand (gardiquimod at a final concentration of 7.5 μM), TLR8 ligand (R848 at a final concentration of 15.9 μM) or TLR9 ligand (ODN2006 at a final concentration of 5 nM) to activate NF-κB and AP-1 which induce the production of SEAP. After a 22 hour incubation at 37° C., 5% CO2, SEAP levels are determined with the addition of HEK-Blue™ Detection reagent (Invivogen), a cell culture medium that allows for detection of SEAP, according to manufacturer's specifications. The percent inhibition is determined as the % reduction in the HEK-Blue signal present in wells treated with agonist plus DMSO alone compared to wells treated with a known inhibitor.
`COc1ccc(-c2cc3cnc(-c4ccc(N5CCN(C(C)C)CC5)nc4)cc3n2C)cc1OC` [Example 31, 2-(3,4-dimethoxyphenyl)-6-(6-(4-isopropylpiperazin-1-yl)pyridin-3-yl)-1-methyl-1H-pyrrolo[3,2-c]pyridine] showed an IC50 of 1.5 µM.
In the case of `COc1ccc(-c2c(C)n(C)c3cnc(-c4ccc(N5CCN(C(C)C)CC5)cc4)cc23)cc1OC` [Example 32, 3-(3,4-dimethoxyphenyl)-5-(4-(4-isopropylpiperazin-1-yl)phenyl)-1,2-dimethyl-1H-pyrrolo[2,3-c]pyridine], the IC50 is reported as 1.4 µM.
Work on `COc1ccc(-c2c(C)n(C)c3cnc(-c4ccc(N5CCN(CCC(C)(C)O)CC5)cc4)cc23)cc1OC` [Example 33, 4-(4-(4-(3-(3,4-dimethoxyphenyl)-1,2-dimethyl-1H-pyrrolo[2,3-c]pyridin-5-yl)phenyl)piperazin-1-yl)-2-methylbutan-2-ol] yielded an IC50 of 3.2 µM.
`Cc1nc(-c2ccc(N3CCN(CC(C)C)CC3)cc2)cc2c1cc(-c1ccc(S(C)(=O)=O)cc1)n2C` [Example 34, 6-(4-(4-isobutylpiperazin-1-yl)phenyl)-1,4-dimethyl-2-(4-(methylsulfonyl)phenyl)-1H-pyrrolo[3,2-c]pyridine] gave an IC50 of 2.2 µM.
Molecule `Cc1nc(-c2ccc(N3CCN(C4CCOCC4)CC3)cc2)cc2c1cc(-c1ccc(S(C)(=O)=O)cc1)n2C` [Example 35, 1,4-dimethyl-2-(4-(methylsulfonyl)phenyl)-6-(4-(4-(tetrahydro-2H-pyran-4-yl)piperazin-1-yl)phenyl)-1H-pyrrolo[3,2-c]pyridine] has an IC50 of 16.8 µM.
For `Cc1nc(-c2ccc(N3CCN(CCCO)CC3)cc2)cc2c1cc(-c1ccc(S(C)(=O)=O)cc1)n2C` [Example 36, 3-(4-(4-(1,4-dimethyl-2-(4-(methylsulfonyl)phenyl)-1H-pyrrolo[3,2-c]pyridin-6-yl)phenyl)piperazin-1-yl)propan-1-ol], the IC50 was 4.7 µM.
`Cc1nc(-c2ccc(N3CCN(C4CCOC4)CC3)cc2)cc2c1cc(-c1ccc(S(C)(=O)=O)cc1)n2C` (stereo not shown) [Example 37, 1,4-dimethyl-2-(4-(methylsulfonyl)phenyl)-6-(4-(4-(tetrahydrofuran-3-yl)piperazin-1-yl)phenyl)-1H-pyrrolo[3,2-c]pyridine] was tested, and the IC50 was 11.7 µM.
Molecule `COCCN1CCN(c2ccc(-c3cc4c(cc(-c5ccc(S(C)(=O)=O)cc5)n4C)c(C)n3)cc2)CC1` [Example 38, 6-(4-(4-(2-methoxyethyl)piperazin-1-yl)phenyl)-1,4-dimethyl-2-(4-(methylsulfonyl)phenyl)-1H-pyrrolo[3,2-c]pyridine] has an IC50 of 2.6 µM.
With `Cc1nc(-c2ccc(C3CCN(CCCO)CC3)cc2)cc2c1cc(-c1ccc(S(C)(=O)=O)cc1)n2C` [Example 41, 3-(4-(4-(1,4-Dimethyl-2-(4-(methylsulfonyl)phenyl)-1H-pyrrolo[3,2-c]pyridin-6-yl)phenyl)piperidin-1-yl)propan-1-ol] the IC50 was 4.9 µM.
In the case of `Cc1nc(-c2cc(F)c(N3CCNCC3)cc2F)cc2c1cc(-c1ccc(S(C)(=O)=O)cc1)n2C` [Example 43, 6-(2,5-Difluoro-4-(piperazin-1-yl)phenyl)-1,4-dimethyl-2-(4-(methylsulfonyl)phenyl)-1H-pyrrolo[3,2-c]pyridine], the IC50 is reported as 6.2 µM.
`Cc1nc(-c2ccc(CN3CCN(CC(C)(C)O)CC3)cc2)cc2c1cc(-c1ccc(S(C)(=O)=O)cc1)n2C` [Example 44, 1-(4-(4-(1,4-Dimethyl-2-(4-(methylsulfonyl)phenyl)-1H-pyrrolo[3,2-c]pyridin-6-yl)benzyl)piperazin-1-yl)-2-methylpropan-2-ol] showed an IC50 of 0.64 µM.
`Cc1nc(-c2ccc(N3CCN(CCCO)CC3)cc2)cc2c1cc(-c1ccc(S(=O)(=O)C3CC3)cc1)n2C` [Example 47, 3-(4-(4-(2-(4-(cyclopropylsulfonyl)phenyl)-1,4-dimethyl-1H-pyrrolo[3,2-c]pyridin-6-yl)phenyl)piperazin-1-yl)propan-1-ol] gave an IC50 of 14.7 µM.
Molecule `COCCN1CCN(c2ccc(-c3cc4c(cc(-c5ccc(S(=O)(=O)C6CC6)cc5)n4C)c(C)n3)cc2)CC1` [Example 48, 2-(4-(cyclopropylsulfonyl)phenyl)-6-(4-(4-(2-methoxyethyl)piperazin-1-yl)phenyl)-1,4-dimethyl-1H-pyrrolo[3,2-c]pyridine] has an IC50 of 2.1 µM.
For `CC(C)CN1CCN(c2ccc(-c3cc4c(cn3)cc(-c3ccc(S(C)(=O)=O)cc3)n4C)cc2)CC1` [Example 53, 6-(4-(4-isobutylpiperazin-1-yl)phenyl)-1-methyl-2-(4-(methylsulfonyl)phenyl)-1H-pyrrolo[3,2-c]pyridine], the IC50 was greater than 50 µM.
For `CC(C)N1CCN(c2ccc(-c3cc4c(cn3)cc(-c3ccc(S(C)(=O)=O)cc3)n4C)cc2)CC1` [Example 54, 6-(4-(4-isopropylpiperazin-1-yl)phenyl)-1-methyl-2-(4-(methylsulfonyl)phenyl)-1H-pyrrolo[3,2-c]pyridine], the IC50 was 4.6 µM.
For `Cc1nc(-c2ccc(N3CCN(CCCO)CC3)c(F)c2F)cc2c1cc(-c1ccc(S(C)(=O)=O)cc1)n2C` [Example 55, 3-(4-(4-(1,4-dimethyl-2-(4-(methylsulfonyl)phenyl)-1H-pyrrolo[3,2-c]pyridin-6-yl)-2,3-difluorophenyl)piperazin-1-yl)propan-1-ol], the IC50 was 5.7 µM.
`Cc1nc(-c2cc(F)c(N3CCN(CCCO)CC3)cc2F)cc2c1cc(-c1ccc(S(C)(=O)=O)cc1)n2C` [Example 56, 3-(4-(4-(1,4-dimethyl-2-(4-(methylsulfonyl)phenyl)-1H-pyrrolo[3,2-c]pyridin-6-yl)-2,5-difluorophenyl)piperazin-1-yl)propan-1-ol] was tested, and the IC50 was 18.5 µM.
`Cc1nc(-c2ccc(CN3CCN(CC(C)C)CC3)cc2)cc2c1cc(-c1ccc(S(C)(=O)=O)cc1)n2C` [Example 57, 6-(4-((4-isobutylpiperazin-1-yl)methyl)phenyl)-1,4-dimethyl-2-(4-(methylsulfonyl)phenyl)-1H-pyrrolo[3,2-c]pyridine] gave an IC50 of 6 µM.
`Cc1nc(-c2ccc(CN3CCN(CCCO)CC3)cc2)cc2c1cc(-c1ccc(S(C)(=O)=O)cc1)n2C` [Example 58, 3-(4-(4-(1,4-dimethyl-2-(4-(methylsulfonyl)phenyl)-1H-pyrrolo[3,2-c]pyridin-6-yl)benzyl)piperazin-1-yl)propan-1-ol] showed an IC50 of 8.2 µM.
`Cc1nc(-c2ccc(CN3CCC(C)(O)CC3)cc2)cc2c1cc(-c1ccc(S(C)(=O)=O)cc1)n2C` [Example 59, 1-(4-(1,4-dimethyl-2-(4-(methylsulfonyl)phenyl)-1H-pyrrolo[3,2-c]pyridin-6-yl)benzyl)-4-methylpiperidin-4-ol] was tested, and the IC50 was 12.9 µM.
`Cc1nc(-c2ccc(CN3CCN(CCC(C)(C)O)CC3)cc2)cc2c1cc(-c1ccc(S(C)(=O)=O)cc1)n2C` [Example 60, 4-(4-(4-(1,4-dimethyl-2-(4-(methylsulfonyl)phenyl)-1H-pyrrolo[3,2-c]pyridin-6-yl)benzyl)piperazin-1-yl)-2-methylbutan-2-ol] gave an IC50 of 5.4 µM.
`Cc1nc(-c2ccc(CN3C[C@@H]4CC[C@H]3CN4CCC(C)(C)O)cc2)cc2c1cc(-c1ccc(S(C)(=O)=O)cc1)n2C` [Example 61, 4-((1S,4S)-5-(4-(1,4-dimethyl-2-(4-(methylsulfonyl)phenyl)-1H-pyrrolo[3,2-c]pyridin-6-yl)benzyl)-2,5-diazabicyclo[2.2.2]octan-2-yl)-2-methylbutan-2-ol] showed an IC50 of 3.1 µM.
